pIC50: −log10 of the molar value.
Tests used:
IDO1 [1] = molecular target: T1, IDO1 (Homo sapiens (Human), UniProt P14902); assay: IDO1 Enzyme Assay; assay type: biochemical; conditions: HIS-tagged recombinant IDO1, fluorescence readout
Procedure: (§1) Compounds to be tested were serially diluted in ten 3-fold steps in DMSO starting from 10 mM DMSO stocks. Compound dilutions or DMSO alone were then dispensed from the dilution plate into a Greiner black 384-well assay plate (catalog #781086) using an Echo 555 acoustic liquid handler (Labcyte).
HIS-tagged IDO1 protein was recombinantly expressed in Escherichia coli using ZYP5052 autoinduction media supplemented with 500 μM delta aminolevulinic acid for 48 h at 16° C. IDO1 protein was purified using Ni^2+-affinity resin and size exclusion chromatography. Purified protein was then diluted in assay buffer (50 mM Tris pH 7.0, 1% glycerol, 20 μM methylene blue, 0.05% Tween-20, 20 mM sodium ascorbate, 100 units/mL catalase to obtain a final IDO1 concentration of 40 nM. IDO1 solution […] or buffer alone ([…]) were dispensed to wells of the assay plate using a BioRAPTR liquid dispenser (Beckman Coulter). Assay plates containing compound and IDO1 enzyme were incubated at RT for 30 min. Afterwards, 10 μL of 400 μM tryptophan in assay buffer were added to each well of the assay plate using a BioRAPTR liquid dispenser. Plates were incubated at RT for 60 min and reactions were quenched by addition of 10 μL of 0.5 M methyl isonipecotate in dimethyl sulfoxide. Plates were sealed and incubated at 37° C. for 4 h or 50° C. for 2 h. The plates are allowed to cool and then centrifuged for 1 min at 1000×g. The resulting fluoresence was measured in an Envision plate reader (Perkin Elmer) with a 400/25 nm excitation filter and an 510/20 nm emission filter.
Potencies were calculated by linear least squares fit to the four parameter logistic IC50 equation.
Target sequence in this assay (P14902 whole entry, species assumed): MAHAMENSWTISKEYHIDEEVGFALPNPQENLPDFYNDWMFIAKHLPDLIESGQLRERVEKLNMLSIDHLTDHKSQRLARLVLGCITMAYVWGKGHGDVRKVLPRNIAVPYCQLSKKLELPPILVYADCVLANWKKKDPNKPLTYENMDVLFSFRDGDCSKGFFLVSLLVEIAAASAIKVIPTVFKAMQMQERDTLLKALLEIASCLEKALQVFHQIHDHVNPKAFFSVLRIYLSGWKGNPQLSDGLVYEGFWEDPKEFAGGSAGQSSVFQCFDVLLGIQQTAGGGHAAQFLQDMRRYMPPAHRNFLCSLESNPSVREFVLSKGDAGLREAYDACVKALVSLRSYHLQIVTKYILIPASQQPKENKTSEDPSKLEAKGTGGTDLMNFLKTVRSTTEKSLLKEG

IDO1 [2] = molecular target: T1, IDO1; assay: IDO1 Cellular Assay in Hela Cells Stimulated with IFNγ; assay type: cell-based; conditions: about 48 hours, read-out: IDO1 HELA Cell Assay, IC50
Procedure: Hela cells were cultured in complete Hela culture medium (90% EMEM, 10% heat-inactivated fetal bovine serum) and expanded to about 1×10^9 cells. The cells were then collected and frozen down at 10×10^6 cells/vial in 1 mL frozen medium (90% complete Hela culture medium, 10% DMSO)
as §1, with “stocks in Echo low volume plate(s).” for “stocks.”, “plate(s)” for “plate”, “into” for “into a”, “#781086, 50 nL/well)” for “#781086)”, “550” for “555”
Target sequence in this assay (P14902 whole entry): as the sequence (P14902 whole entry, species assumed) above
Frozen Hela cells were thawed and transferred into Hela assay medium (99% complete Hela culture medium, 1% Pen/Strep) with 20 mL medium/vial of cells. The cells were spun down at 250 g in a table top centrifuge for 5 min and suspended in same volume of Hela assay medium. The cells were then counted and adjusted to a density of 2×10^5 cells/ml in Hela assay medium. Sterile L-tryptophan were added to the cells with final concentration of 300 uM L-tryptophan. A small aliquot (2 mL/plate) of Hela cells were set aside and were not treated with IFNγ, to serve as the Max-E control. The rest of Hela cells were added with sterile IFNγ (Cat #285-IF, R & D systems) with a final concentration of 100 ng/mL.
Hela cells with and without IFNγ were dispensed to the respective wells of 384-well assay plates containing the compounds. The plates were incubated for about 48 hours at a 37° C., 5% CO2 incubator. Afterwards, 12 μL of 0.5 M methyl isonipecotate in dimethyl sulfoxide were added into each well and the plates were sealed and incubated at 37° C. without CO2 overnight. The plates were centrifuged for 1 min at 200×g. The resulting fluorescence was measured in a Spectramax plate reader (Molecular Devices) with a 400 nm excitation filter and a 510 nm emission filter.
The fluorescence intensity of each well was corrected for the background observed in wells with non-IFNγ-treated cells and was expressed as a fraction of the intensity observed in wells of IFNγ-treated cells and DMSO only. Potencies were calculated by linear least squares fit to the four parameter logistic IC50 equation.

pIC50 (IDO1 [1])	pIC50 (IDO1 [2])	SMILES
6.67	6.45	C[S@@](=N)(=O)CCCOc1nonc1/C(=N/O)NC1Cc2ccc(F)cc21 (single isomer, unassigned) [Example 31]
7.11	7.04	CS(=N)(=O)CCC(O)CNc1nonc1/C(=N\O)N[C@@H]1Cc2ccc(F)cc21 (single isomer, unassigned) [Example 79]
7.32	7.59	N=S(N)(=O)CCCNc1nonc1/C(=N\O)NC1Cc2ccc(F)cc21 (stereo in doubt) [Example 65, 4-{[3-(S-aminosulfonimidoyl)propyl]amino}-N-[(7S)-4-fluorobicyclo[4.2.0]octa-1,3,5-trien-7-yl]-N′-hydroxy-1,2,5-oxadiazole-3-carboximidamide]
7.17	7.21	CS(=N)(=O)N1CCC(Nc2nonc2/C(=N/O)N[C@H]2Cc3ccc(F)cc32)CC1 (single isomer, unassigned) [Example 19]
6.95	7.00	CS(=N)(=O)CC(=O)N1CC(Oc2nonc2/C(=N/O)N[C@H]2Cc3ccc(F)cc32)C1 (single isomer, unassigned) [Example 49]
7.08	6.70	CS(=N)(=O)N1CCO[C@@H](CNc2nonc2/C(=N\O)N[C@@H]2Cc3ccc(F)cc32)C1 (single isomer, unassigned) [Example 64]
6.63	6.70	CN=S(C)(=O)CCNC(=O)CNc1nonc1/C(=N/O)N[C@H]1Cc2ccc(F)cc21 (stereo partly drawn) [Example 40, N-[2-(N,S-dimethylsulfonimidoyl)ethyl]-N~2~-(4-{N-[(7S)-4-fluorobicyclo[4.2.0]octa-1,3,5-trien-7-yl]-N′-hydroxycarbamimidoyl}-1,2,5-oxadiazol-3-yl)glycinamide]
7.25	7.36	CS(=N)(=O)N1CC(Oc2nonc2/C(=N/O)N[C@H]2Cc3ccc(F)cc32)C1 (single isomer, unassigned) [Example 42]
7.09	7.22	CN=S(C)(=O)NCCNc1nonc1/C(=N\O)N[C@H]1Cc2ccc(F)cc21 (single isomer, unassigned) [Example 66]
6.92	6.89	CS(=N)(=O)N1CCO[C@@H](CNc2nonc2/C(=N\O)N[C@H]2Cc3ccc(F)cc32)C1 (single isomer, unassigned) [Example 59]
7.41	7.56	CS(=N)(=O)NCCNc1nonc1/C(=N/O)N[C@H]1Cc2ccc(F)cc21 (stereo partly drawn) [Example 11, N—((S)-4-fluorobicyclo[4.2.0]octa-1(6),2,4-trien-7-yl)-N′-hydroxy-4-((2-(methylsulfonoamidimidamido)ethyl)amino)-1,2,5-oxadiazole-3-carboximidamide]
7.04	7.40	CS(=N)(=O)C1CC2(CC(Nc3nonc3/C(=N\O)N[C@@H]3Cc4ccc(F)cc43)C2)C1 (single isomer, unassigned) [Example 75]
7.15	6.96	CS(=O)(CCNc1nonc1/C(=N\O)N[C@H]1Cc2ccc(F)cc21)=NCCO (single isomer, unassigned) [Example 57]
6.95	6.82	CS(=N)(=O)CC(=O)N1CC(Oc2nonc2/C(=N/O)N[C@H]2Cc3ccc(F)cc32)C1 (single isomer, unassigned) [Example 50]
7.31	7.30	CC(O)CS(=N)(=O)CCNc1nonc1/C(=N\O)N[C@@H]1Cc2ccc(F)cc21 (single isomer, unassigned) [Example 85]
7.20	6.99	CS(=N)(=O)CCNC(=O)CNc1nonc1/C(=N/O)N[C@H]1Cc2ccc(F)cc21 (single isomer, unassigned) [Example 14]
6.76	6.81	CS(=N)(=O)N1CCC(Nc2nonc2/C(=N/O)N[C@H]2Cc3ccc(F)cc32)C1 (single isomer, unassigned) [Example 46]
6.97	6.79	CS(=N)(=O)NCC(O)CNc1nonc1/C(=N\O)N[C@H]1Cc2ccc(F)cc21 (single isomer, unassigned) [Example 56]

pIC50 (IDO1 [1])	pIC50 (IDO1 [2])	SMILES
7.23	7.35	N=S(=O)(CCNc1nonc1/C(=N\O)N[C@@H]1Cc2ccc(F)cc21)C1CC1 (single isomer, unassigned) [Example 68]
7.09	7.08	CS(=N)(=O)CC12CC(Nc3nonc3/C(=N\O)N[C@@H]3Cc4ccc(F)cc43)(C1)C2 (single isomer, unassigned) [Example 83]
7.19	7.07	C[S@](=N)(=O)C1CC(Nc2nonc2/C(=N\O)N[C@@H]2Cc3ccc(F)cc32)C1 (single isomer, unassigned) [Example 73]
7.10	7.14	CS(=N)(=O)N1CC(CNc2nonc2/C(=N\O)N[C@@H]2Cc3ccc(F)cc32)C1 (single isomer, unassigned) [Example 71]
7.15	6.91	CS(=N)(=O)CC(O)CNc1nonc1/C(=N/O)N[C@H]1Cc2ccc(F)cc21 (single isomer, unassigned) [Example 29]
7.34	7.28	CC(O)CS(=N)(=O)CCNc1nonc1/C(=N\O)N[C@@H]1Cc2ccc(F)cc21 (single isomer, unassigned) [Example 87]
7.09	6.89	CS(=N)(=O)N[C@H]1C[C@@H](Oc2nonc2/C(=N\O)N[C@@H]2Cc3ccc(F)cc32)C1 (single isomer, unassigned) [Example 61]
7.36	7.52	N=S(=O)(CCO)CCNc1nonc1/C(=N/O)N[C@H]1Cc2ccc(F)cc21 (single isomer, unassigned) [Example 8]
7.29	7.45	CS(=N)(=O)CCCCNc1nonc1/C(=N/O)N[C@H]1Cc2ccc(F)cc21 (single isomer, unassigned) [Example 39]
7.13	7.49	CS(=N)(=O)C1CC2(CC(Nc3nonc3/C(=N\O)N[C@@H]3Cc4ccc(F)cc43)C2)C1 (single isomer, unassigned) [Example 74]
6.76	6.83	CS(=N)(=O)NCCOc1nonc1/C(=N/O)N[C@H]1Cc2ccc(F)cc21 (single isomer, unassigned) [Example 52]
7.35	7.27	CON=[S@](C)(=O)CCNc1nonc1/C(=N/O)NC1Cc2ccc(F)cc21 (single isomer, unassigned) [Example 90]
6.63	6.48	CS(=N)(=O)N1CCO[C@@H](CNc2nonc2/C(=N\O)N[C@H]2Cc3ccc(F)cc32)C1 (single isomer, unassigned) [Example 60]
6.86	7.09	N=S1(=O)CCC1CNc1nonc1/C(=N/O)N[C@H]1Cc2ccc(F)cc21 (single isomer, unassigned) [Example 22]
7.03	6.93	CS(=N)(=O)NCC(O)CNc1nonc1/C(=N\O)N[C@H]1Cc2ccc(F)cc21 (single isomer, unassigned) [Example 55]
6.83	6.74	CS(=N)(=O)N[C@H]1C[C@@H](Oc2nonc2/C(=N\O)N[C@@H]2Cc3ccc(F)cc32)C1 (single isomer, unassigned) [Example 62]
7.24	7.13	CS(=N)(=O)CCC(O)CNc1nonc1/C(=N\O)N[C@@H]1Cc2ccc(F)cc21 (single isomer, unassigned) [Example 78]
7.25	7.26	CC(O)CS(=N)(=O)CCNc1nonc1/C(=N\O)N[C@@H]1Cc2ccc(F)cc21 (single isomer, unassigned) [Example 84]

Source: US10927086B2, “Substituted sulfoximine compounds as indoleamine 2,3-dioxygenase (IDO) inhibitors” (Merck Sharp & Dohme Corp., priority 2017, dated 2021)
